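Five compound concentrations were applied to cells in 96-well plates for 48 hours; endpoints were derived by simple linear interpolation of the resulting dose-response curve. Abbreviation: GI50, concentration required for 50% inhibition of growth.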 Activity calls are given as the source filed them. Rule as the data show it: active = GI50 up to about 1.1 µM and inactive = higher.
Columns and labels:
Experiment in all cases: NCI tumour cell line growth inhibition, 48 h
SN12C = tested on: SN12C
SW-620 = tested on: SW-620
UACC-257 = tested on: UACC-257
U-251 = tested on: U-251
HCT-116 = tested on: HCT-116
K562 = tested on: K562
HT-29 = tested on: HT-29
CCRF-CEM = tested on: CCRF-CEM
IGROV-1 = tested on: IGROV-1
LOX IMVI = tested on: LOX IMVI
OVCAR-3 = tested on: OVCAR-3
MDA-N = tested on: MDA-N
SK-MEL-28 = tested on: SK-MEL-28
TK-10 = tested on: TK-10
SF-268 = tested on: SF-268
HCT-15 = tested on: HCT-15
M14 = tested on: M14
SF-539 = tested on: SF-539
MDA-MB-435 = tested on: MDA-MB-435

| Structure (SMILES) | GI50 (SN12C) | GI50 (SW-620) | GI50 (UACC-257) | GI50 (U-251) | GI50 (HCT-116) | GI50 (K562) | GI50 (HT-29) | GI50 (CCRF-CEM) | GI50 (IGROV-1) | GI50 (LOX IMVI) | GI50 (OVCAR-3) | GI50 (MDA-N) | GI50 (SK-MEL-28) | GI50 (TK-10) | GI50 (SF-268) | GI50 (HCT-15) [µM] | GI50 (M14) | GI50 (SF-539) | GI50 (MDA-MB-435) |
| --- | --- | --- | --- | --- | --- | --- | --- | --- | --- | --- | --- | --- | --- | --- | --- | --- | --- | --- | --- |
| COc1ccc(C[C@H]2COC(=O)[C@@H]2Cc2ccccc2)cc1OC | > 100 µM (inactive) | > 100 µM (inactive) | > 100 µM (inactive) | > 100 µM (inactive) | > 100 µM (inactive) | > 100 µM (inactive) | > 100 µM (inactive) | > 100 µM (inactive) | > 100 µM (inactive) | > 100 µM (inactive) | > 100 µM (inactive) | > 100 µM (inactive) | > 100 µM (inactive) | > 100 µM (inactive) |  |  |  |  |  |
| CN(C)c1ccc(/C=C2\C=Cc3ccccc32)cc1 | 39.9 µM (inactive) | 38.1 µM (inactive) |  | 55 µM (inactive) | 33.1 µM (inactive) | 28.8 µM (inactive) | 40.4 µM (inactive) | 43.2 µM (inactive) | 53.7 µM (inactive) | 47.2 µM (inactive) | 73.6 µM (inactive) |  | 43.6 µM (inactive) | > 100 µM (inactive) | 45.1 µM (inactive) | 34.6 | 29.2 µM (inactive) | 50.7 µM (inactive) |  |
| COC(=O)c1ccc(C(=O)OC)c2nc3cc(Cl)ccc3nc12 | > 100 µM (inactive) | > 100 µM (inactive) | > 100 µM (inactive) | > 100 µM (inactive) | > 100 µM (inactive) | > 100 µM (inactive) | 75.3 µM (inactive) | > 100 µM (inactive) | > 100 µM (inactive) | > 100 µM (inactive) | > 100 µM (inactive) |  | > 100 µM (inactive) | > 100 µM (inactive) | > 100 µM (inactive) | > 100 | > 100 µM (inactive) | > 100 µM (inactive) |  |
| CNS(=O)(=O)NNS(=O)(=O)c1cccc([N+](=O)[O-])c1 | > 100 µM (inactive) | > 100 µM (inactive) | > 100 µM (inactive) | > 100 µM (inactive) | > 100 µM (inactive) | > 100 µM (inactive) | > 100 µM (inactive) | > 100 µM (inactive) | > 100 µM (inactive) | > 100 µM (inactive) | > 100 µM (inactive) |  |  | > 100 µM (inactive) |  | > 100 | > 100 µM (inactive) | > 100 µM (inactive) |  |
| C[C@H](CCCOS(C)(=O)=O)[C@H]1CC[C@H]2[C@@H]3CC[C@@H]4C[C@H](OS(C)(=O)=O)CC[C@]4(C)[C@H]3CC[C@]12C | 16.7 µM (inactive) | 56 µM (inactive) | 46.7 µM (inactive) | 15.9 µM (inactive) | 29.5 µM (inactive) | > 100 µM (inactive) | 31.8 µM (inactive) | > 100 µM (inactive) | 30.1 µM (inactive) | 31.7 µM (inactive) | 21.4 µM (inactive) |  | > 100 µM (inactive) | 15.7 µM (inactive) | 27 µM (inactive) | 66.8 | 90.4 µM (inactive) | 21 µM (inactive) | 20.5 µM (inactive) |
| COc1ccc2cc(NC(=O)N/N=C\c3ccc([N+](=O)[O-])cc3)ccc2c1 | 86.3 µM (inactive) | > 100 µM (inactive) | 42.2 µM (inactive) | 29.9 µM (inactive) | 53.3 µM (inactive) | 80.4 µM (inactive) | 33.5 µM (inactive) | > 100 µM (inactive) | 23.7 µM (inactive) | > 100 µM (inactive) | 40.5 µM (inactive) | 79.3 µM (inactive) | > 100 µM (inactive) |  | 20.1 µM (inactive) | 48 | 30.8 µM (inactive) |  | 69 µM (inactive) |
| Cc1ccc(S(=O)(=O)NC(=O)NCCC(=O)O)cc1 | > 100 µM (inactive) | > 100 µM (inactive) | > 100 µM (inactive) | > 100 µM (inactive) | > 100 µM (inactive) | > 100 µM (inactive) | > 100 µM (inactive) | > 100 µM (inactive) | > 100 µM (inactive) | > 100 µM (inactive) |  | > 100 µM (inactive) | > 100 µM (inactive) | > 100 µM (inactive) | > 100 µM (inactive) | 21.4 | > 100 µM (inactive) | > 100 µM (inactive) |  |
| CC(=O)Nc1oc(C)c(C)c1S(=O)(=O)c1ccc(Cl)cc1 |  | > 100 µM (inactive) | 41 µM (inactive) | 92 µM (inactive) | 55 µM (inactive) | 77.1 µM (inactive) | 49 µM (inactive) | 79.8 µM (inactive) | 70 µM (inactive) |  | 27.5 µM (inactive) |  | 95.3 µM (inactive) | 60.5 µM (inactive) | 33.7 µM (inactive) | 41.8 | 63.8 µM (inactive) | 26.7 µM (inactive) | 33.5 µM (inactive) |
| COC(=O)[C@@H]1Cc2ccc(OC)c(c2)OCCC(=O)N1 |  | > 100 µM (inactive) | > 100 µM (inactive) | > 100 µM (inactive) | > 100 µM (inactive) | > 100 µM (inactive) | > 100 µM (inactive) | > 100 µM (inactive) | 3.14 µM (inactive) |  | > 100 µM (inactive) | > 100 µM (inactive) | > 100 µM (inactive) | > 100 µM (inactive) | > 100 µM (inactive) | > 100 | > 100 µM (inactive) |  | > 100 µM (inactive) |
| CCOC(OCC)C(CCc1ccccc1)c1c(N)nc(N)[nH]c1=O (configuration not stated) | 56.8 µM (inactive) | 78.7 µM (inactive) | > 100 µM (inactive) | 81.1 µM (inactive) | 65.3 µM (inactive) | 24.7 µM (inactive) | 55.1 µM (inactive) | 53.6 µM (inactive) | 37.1 µM (inactive) | 64.3 µM (inactive) | 62.4 µM (inactive) |  | > 100 µM (inactive) | 66.2 µM (inactive) | 52 µM (inactive) | 68.7 | 80.5 µM (inactive) | > 100 µM (inactive) | 32.4 µM (inactive) |
| COc1cccc(-c2c(-c3ccccc3)[nH]c(C)c2C(=O)ONC(=O)c2ccccc2)c1 | 3.4 µM (inactive) | 13.6 µM (inactive) | 13.5 µM (inactive) | 3.14 µM (inactive) | 3.98 µM (inactive) | 2.89 µM (inactive) | 10 µM (inactive) | 3.21 µM (inactive) | 1.66 µM (inactive) | 1.89 µM (inactive) | 6.38 µM (inactive) |  | 14.7 µM (inactive) | 9.08 µM (inactive) | 7.57 µM (inactive) | 12.1 | 5.7 µM (inactive) | 6.76 µM (inactive) | 3.34 µM (inactive) |
| CC1CC/C(=C\c2ccc(F)cc2)C2=C1C(c1ccc(F)cc1)n1c(s/c(=C/c3cccc(Br)c3)c1=O)=N2 (configuration not stated) | > 100 µM (inactive) | > 100 µM (inactive) | > 100 µM (inactive) | > 100 µM (inactive) | > 100 µM (inactive) | > 100 µM (inactive) | > 100 µM (inactive) | > 100 µM (inactive) | > 100 µM (inactive) | > 100 µM (inactive) |  | > 100 µM (inactive) | > 100 µM (inactive) | > 100 µM (inactive) | > 100 µM (inactive) | > 100 | > 100 µM (inactive) |  | > 100 µM (inactive) |
| Cc1ccc(S(=O)(=O)CC2(Br)CCc3ccccc3C2=O)cc1 (configuration not stated) | 30.6 µM (inactive) | 18 µM (inactive) | 22.3 µM (inactive) | 21.4 µM (inactive) | 47.1 µM (inactive) | 5.89 µM (inactive) | 20.8 µM (inactive) |  | 17.5 µM (inactive) | 32 µM (inactive) | 45.3 µM (inactive) |  | 17.2 µM (inactive) | 33 µM (inactive) | 16.6 µM (inactive) | 19.8 | 45.4 µM (inactive) | 33.7 µM (inactive) | 16.5 µM (inactive) |
| Nc1cc(C2CCCc3c2[nH]c2ccccc32)ccc1O (configuration not stated) | 65.2 µM (inactive) | 23.6 µM (inactive) | 42.4 µM (inactive) | 48.2 µM (inactive) | 20.3 µM (inactive) | 6.56 µM (inactive) | 23.4 µM (inactive) | 0.76 µM (active) | 38.2 µM (inactive) | 16.4 µM (inactive) | 22.3 µM (inactive) |  | > 100 µM (inactive) | > 100 µM (inactive) | 45.9 µM (inactive) | 55.3 | 6.19 µM (inactive) | > 100 µM (inactive) | 12.3 µM (inactive) |
| NN/C(=N\S(=O)(=O)c1ccc(-c2ccccn2)s1)Nc1ccc(Cl)cc1 | > 100 µM (inactive) | > 100 µM (inactive) | > 100 µM (inactive) | 44.2 µM (inactive) | > 100 µM (inactive) | > 100 µM (inactive) | > 100 µM (inactive) |  | > 100 µM (inactive) | > 100 µM (inactive) | 73.8 µM (inactive) | > 100 µM (inactive) | > 100 µM (inactive) | > 100 µM (inactive) | 22.1 µM (inactive) | > 100 | > 100 µM (inactive) | 38.9 µM (inactive) |  |
| O=C1OCC2OC(=O)c3cc(O)c(O)c(O)c3-c3c(O)c(O)c(O)c4c3C(=O)OC(C2OC(=O)c2cc(O)c(O)c(O)c2-c2c1cc(O)c(O)c2O)C1OC(=O)C2C4=C(O)C(=O)C23Oc2cc(O)c4c(c2[C@H]13)O[C@H](c1ccc(O)c(O)c1)[C@@H](O)C4 (some centres not stated) | 18 µM (inactive) | 20.6 µM (inactive) | 29 µM (inactive) | 16.6 µM (inactive) | 17.3 µM (inactive) | 26 µM (inactive) | 16.2 µM (inactive) | 19.4 µM (inactive) | 26.4 µM (inactive) | 14.8 µM (inactive) | 30.1 µM (inactive) |  | 66.7 µM (inactive) |  | 19 µM (inactive) | 18.4 | 12.6 µM (inactive) |  | 18.5 µM (inactive) |
